Assay results as given in patent US20070117770A1, “Human ribosomal DNA (rDNA) and ribosomal RNA (rRNA) nucleic acids and uses thereof” (Cylene Pharmaceuticals, Inc., priority 2005, published 2007).

Key:
AMPK(r) = experiment: Protein kinase inhibition assay; type: biochemical, rat; conditions: 2.5 μM
Procedure: (§1) Certain compounds were tested for activity in protein kinase inhibition assays. All substrates were dissolved and diluted to working stocks in de-ionized water, apart from histone H1 (10× working stock in 20 mM MOPS pH 7.0), PDKtide (10× working stock in 50 mM Tris pH 7.0) ATF2 (which is typically stored at a 20× working stock in 50 mM Tris pH 7.5, 150 mM NaCl, 0.1 mM EGTA, 0.03% Brij-35, 50% glycerol, 1 mM benzamidine, 0.2 mM PMSF and 0.1% R-mercaptoethanol), KKLNRTLSFAEPG (SEQ ID NO:203) and RRRLSFAEPG (SEQ ID NO:204) (50 mM HEPES pH 7.4) and GGEEEEYFELVKKKK (SEQ ID NO:205) (20 mM MOPS pH 7.0). All kinases were pre-diluted to a 10× working concentration prior to addition into the assay. The composition of the dilution buffer for each kinase is detailed below.
(§2) In a final reaction volume of 25 μl, AMPK (r) (5-10 mU) is incubated with 32 mM HEPES pH 7.4, 0.65 mM DTT, 0.012% Brij-35, 200 μM AMP, 200 μM AMARAASAAALARRR (SEQ ID NO:208), 10 mM MgAcetate and [gamma-33P-ATP] (specific activity approx. 500 cpm/pmol, concentration as required). The reaction is initiated by the addition of the MgATP mix. After incubation for 40 minutes at room temperature, the reaction is stopped by the addition of 5 μl of a 3% phosphoric acid solution. […]

CDK3/cyclinE(h) = CDK3/cyclinE(h) (Homo sapiens, UniProt Q00526); experiment: Protein kinase inhibition assay; type: biochemical; conditions: read-out: percent residual activity of CDK3/cyclinE(h)
CDK3/cyclinE(h), sequence (Q00526 whole entry): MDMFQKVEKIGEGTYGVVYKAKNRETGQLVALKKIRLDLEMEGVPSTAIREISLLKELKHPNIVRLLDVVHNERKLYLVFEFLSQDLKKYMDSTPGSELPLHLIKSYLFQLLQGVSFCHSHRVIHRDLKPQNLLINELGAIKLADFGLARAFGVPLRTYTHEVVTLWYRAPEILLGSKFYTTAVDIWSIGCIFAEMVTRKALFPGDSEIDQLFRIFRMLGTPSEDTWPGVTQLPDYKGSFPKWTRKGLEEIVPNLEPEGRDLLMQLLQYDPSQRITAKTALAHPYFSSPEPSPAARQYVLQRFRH
CDK3/cyclinE(h), sequence (P24864 whole entry partner): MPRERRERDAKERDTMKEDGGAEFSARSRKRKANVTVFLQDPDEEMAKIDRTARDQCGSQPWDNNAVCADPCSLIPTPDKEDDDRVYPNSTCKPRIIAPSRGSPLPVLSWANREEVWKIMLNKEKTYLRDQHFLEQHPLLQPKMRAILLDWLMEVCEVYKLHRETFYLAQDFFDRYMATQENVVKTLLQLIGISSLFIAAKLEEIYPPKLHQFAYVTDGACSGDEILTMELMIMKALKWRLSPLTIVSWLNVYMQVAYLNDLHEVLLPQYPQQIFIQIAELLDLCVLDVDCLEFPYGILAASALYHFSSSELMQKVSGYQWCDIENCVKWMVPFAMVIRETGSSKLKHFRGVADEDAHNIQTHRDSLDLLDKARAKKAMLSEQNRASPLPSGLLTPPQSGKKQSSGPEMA
Procedure: as §1
(§3) In a final reaction volume of 25 μl, CDK3/cyclinE (h) (5-10 mU) is incubated with 8 mM MOPS pH 7.0, 0.2 mM EDTA, 0.1 mg/ml histone H1, 10 mM MgAcetate and [gamma-33P-ATP] (specific activity approx. 500 cpm/pmol, concentration as required). The reaction is initiated by the addition of the MgATP mix. After incubation for 40 minutes at room temperature, the reaction is stopped by the addition of 5 μl of a 3% phosphoric acid solution. 10 μl of the reaction is then spotted onto a P30 filtermat and washed three times for 5 minutes in 75 mM phosphoric acid and once in methanol prior to drying and scintillation counting.

p70S6K(h) = experiment: Protein kinase inhibition assay; type: biochemical, human; conditions: 2.5 μM
Procedure: as §1
as §3, with “p70S6K” for “CDK3/cyclinE”, “100 μM KKRNRTLTV (SEQ ID NO:212),” for “0.1 mg/ml histone H1,”

PKCδ(h) = PKCδ(h) (Homo sapiens, UniProt Q05655); experiment: Protein kinase inhibition assay; type: biochemical; conditions: read-out: percent residual activity of PKCδ(h)
PKCδ(h), sequence (Q05655 whole entry): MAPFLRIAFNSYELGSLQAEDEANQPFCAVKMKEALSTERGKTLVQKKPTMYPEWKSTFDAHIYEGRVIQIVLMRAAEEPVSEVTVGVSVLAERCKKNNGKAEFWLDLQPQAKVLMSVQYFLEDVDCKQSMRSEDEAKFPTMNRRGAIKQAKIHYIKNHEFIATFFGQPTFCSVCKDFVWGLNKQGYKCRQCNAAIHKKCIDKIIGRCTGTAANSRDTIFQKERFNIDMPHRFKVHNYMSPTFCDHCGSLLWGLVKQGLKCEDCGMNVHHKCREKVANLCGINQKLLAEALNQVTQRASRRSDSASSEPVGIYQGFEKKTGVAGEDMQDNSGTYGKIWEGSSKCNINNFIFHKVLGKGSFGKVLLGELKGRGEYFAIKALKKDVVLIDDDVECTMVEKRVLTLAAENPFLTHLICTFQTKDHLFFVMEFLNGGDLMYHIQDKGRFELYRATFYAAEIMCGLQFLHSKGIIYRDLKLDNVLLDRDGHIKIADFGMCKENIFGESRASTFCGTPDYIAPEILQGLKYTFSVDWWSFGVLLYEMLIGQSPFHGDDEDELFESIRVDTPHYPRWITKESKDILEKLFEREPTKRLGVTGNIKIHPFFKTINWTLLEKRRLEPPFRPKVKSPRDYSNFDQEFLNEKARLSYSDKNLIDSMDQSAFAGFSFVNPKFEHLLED
Procedure: as §1
as §2, with “PKCδ (h)” for “AMPK (r)”, “20” for “32”, “0.03% Triton X-100, 0.1 mg/ml phosphatidylserine, 10 μg/ml diacylglycerol, 50” for “0.65 mM DTT, 0.012% Brij-35, 200”, “ERMRPRKRQGSVRRRV” for “AMP, 200 μM AMARAASAAALARRR”, “NO:224),” for “NO:208),”

TrkA(h) = TrkA(h) (Homo sapiens, UniProt P04629); experiment: Protein kinase inhibition assay; type: biochemical; conditions: read-out: percent residual activity of TrkA(h)
TrkA(h), sequence (P04629 33-796): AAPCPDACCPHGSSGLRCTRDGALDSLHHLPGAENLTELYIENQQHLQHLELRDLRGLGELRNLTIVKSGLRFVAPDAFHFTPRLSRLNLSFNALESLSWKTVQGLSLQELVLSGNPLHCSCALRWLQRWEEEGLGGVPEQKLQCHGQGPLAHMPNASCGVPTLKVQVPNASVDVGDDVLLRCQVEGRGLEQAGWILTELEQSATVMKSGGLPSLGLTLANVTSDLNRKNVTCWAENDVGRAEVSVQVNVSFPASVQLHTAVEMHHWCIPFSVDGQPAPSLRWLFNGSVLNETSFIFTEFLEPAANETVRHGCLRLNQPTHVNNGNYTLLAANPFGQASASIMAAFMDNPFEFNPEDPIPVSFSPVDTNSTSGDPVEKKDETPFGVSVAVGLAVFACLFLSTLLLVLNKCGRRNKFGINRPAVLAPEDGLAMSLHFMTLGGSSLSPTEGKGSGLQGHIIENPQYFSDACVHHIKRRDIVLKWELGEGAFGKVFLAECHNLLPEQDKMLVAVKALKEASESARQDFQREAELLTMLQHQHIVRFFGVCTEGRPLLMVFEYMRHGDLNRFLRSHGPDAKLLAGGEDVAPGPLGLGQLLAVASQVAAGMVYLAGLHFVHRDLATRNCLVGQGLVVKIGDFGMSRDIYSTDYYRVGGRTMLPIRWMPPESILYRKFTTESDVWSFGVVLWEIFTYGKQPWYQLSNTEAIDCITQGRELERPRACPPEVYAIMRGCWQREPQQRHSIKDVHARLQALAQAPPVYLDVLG
Procedure: as §1
as §3, with “TrkA” for “CDK3/cyclinE”, “250 μM KKKSPGEYVNIEFG (SEQ ID NO:207),” for “0.1 mg/ml histone H1,”

HCT116 cells = experiment: Protein synthesis (3H-methionine incorporation); type: cell-based; conditions: at the tested concentrations
Procedure: Effects of compound A-1 and compound B-1 on DNA synthesis, RNA synthesis and protein synthesis were determined in HCT116 cells. HCT116 cells were plated overnight at 100,000 cells per mL. Next day cells were treated with increasing amounts of either compound A-1 or compound B-1 followed by one hour incubation with BrdU label (from a BrdU Cell proliferation Assay Kit, Calbiochem) to monitor DNA synthesis; […] of ^3H-uridine to monitor total RNA synthesis; […] of ^3H-methionine to monitor protein synthesis or plain media to monitor RNA Polymerase II-dependent RNA synthesis. DNA synthesis was assessed using a BrdU-ELISA (BrdU Cell proliferation Assay Kit, Calbiochem). To measure total RNA synthesis, total RNA from treated cells was isolated with a RNease kit (QIAGEN), levels of total RNA were assessed with Ribogreen reagent (Invitrogen) and the newly synthesized tritiated RNA was measured in a scintillation Counter (Perkin Elmer). To measure effects on protein synthesis, cells were lysed in a RIPA buffer, and total protein was precipitated with 10% TCA on a glass-filters. Newly synthesized tritiated protein was measured in a scintillation Counter (Perkin Elmer). Effects of drugs on […] RNA synthesis were assessed by monitoring levels of a c-myc mRNA, which has a relatively short half-life of approximately 30 minutes, by Taqman qRT-PCR (ABI).

| percent residual activity of AMPK(r) (AMPK(r)) | remaining activity at 2.5 µM (CDK3/cyclinE(h)) | inhibition of p70S6K (p70S6K(h)) | percent residual activity of p70S6K(h) (p70S6K(h)) | remaining activity at 2.5 µM (PKCδ(h)) | remaining activity at 2.5 µM (TrkA(h)) | SMILES | effect on protein synthesis (HCT116 cells) |
| --- | --- | --- | --- | --- | --- | --- | --- |
| 82% | 93% | greater than 80% | 18% | 105% | 25% | CN1CCCC1CCNC(=O)c1cn2c3c(c(N4CCC(c5cnccn5)C4)c(F)cc3c1=O)Oc1cc3ccccc3cc1-2 (stereo not shown) [Compound A-1] | no measureable effect |
| 95% | 103% |  | 97% | 100% | 80% | CC(=O)N1CCN(c2ccc3c(=O)c(C(=O)NCCN4CCCC4)c4n(C)c5ccccc5n4c3n2)CC1 [Compound B-1] | no measureable effect |
